Measured values published in US5075289A, “9-R-azacyclic erythromycin antibiotics” (priority 1988, dated 1991).
Converted amounts (≈) assume the structure as drawn. Where two headings read alike, the source gives them in different places.

Key:
[1] = system: Haemophilus influenzae 566A; assay: In vitro antibacterial activity, agar dilution MIC; format: cell-based; conditions: H. influenzae 566A
Procedure, shortened: (§1)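 Test compound serially diluted in Brain Heart Infusion agar across twelve plates; inocula of 1:100 dilutions (1:10 for slow growers such as Streptococcus) applied by replicator. Plates incubated 20-24 h at 35°-37° C. MIC taken as lowest concentration giving no growth, slight haze or sparse isolated colonies versus drug-free control.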

[2] = system: Streptococcus pneumoniae (6303); assay: In-vivo mouse protection assay (acute mouse protection test); parameters: species or system Swiss albino mice; conditions: 168 h, S. pneumoniae 6303, dosed 1 and 5 hours post infection, 7 days, read-out: ED50
Protocol: (§2) The acute mouse protection test is conducted on ten mice with each of three levels of drug. Mouse mortality is used to calculate an ED50 value, i.e., the dose of drug required to protect 50% of the test animals against death due to the inoculum challenge.
(§3) The acute mouse protection test is conducted on female, Swiss albino mice, 18-20 grams in weight. […] To check the potency of the inoculum, a titration of the indicated test organism is carried out in control animals. The treatment group of animals is dosed with the test compound at 1 and 5 hours post infection and observed for 7 days. The ED50 values are calculated using the mortality data collected.

[3] = system: Streptococcus pyogenes C-203; assay: as above; parameters: species or system Swiss albino mice
Protocol: as §2, §3

[4] = system: Staphylococcus aureus (NCTC 10649); assay: as above; parameters: species or system Swiss albino mice; conditions: S. aureus NCTC 10649, dosed 1 and 5 hours post infection, 7 days, read-out: ED50
Protocol: as §2, §3

[5] = system: Staphylococcus aureus 45 RAR 2; assay: microbe, parasite or virus in culture; format: cell-based; conditions: 45RAR2
Procedure, shortened: as §1

[6] = C203, 168 h, Oral, S. pyogenes C-203, dosed 1 and 5 hours post infection, 7 days, read-out: ED50
[7] = NCTC10649, sc, 168 h, Subcutaneous

| SMILES | MIC [1] | ED50 ([2]; Oral) | ED50 ([2]; sc, Subcutaneous) | ED50 [3, 6] | ED50 ([3]; C203, sc, 168 h) | ED50 ([4]; NCTC10649, 168 h, Oral) | ED50 [4, 7] | MIC [5] | ED50 ([3]; C203, sc, 168 h, Subcutaneous, S. pyogenes C-203, dosed 1 and 5 hours post infection, 7 days, read-out: ED50) |
| --- | --- | --- | --- | --- | --- | --- | --- | --- | --- |
| CC[C@H]1OC(=O)[C@H](C)[C@@H](O[C@H]2C[C@@](C)(OC)[C@@H](O)[C@H](C)O2)[C@H](C)[C@@H](O[C@@H]2O[C@H](C)C[C@H](N(C)C)[C@H]2O)[C@](C)(O)C[C@@H](C)[C@@H](N2CCOCC2)[C@H](C)[C@@H](O)[C@]1(C)O [Example 19] | 4 µg/mL (≈ 4.97 µM) | 9.7 mg/kg | 1.1 mg/kg | 9.5 mg/kg | 2.1 mg/kg | 44.8 mg/kg | 15.5 mg/kg | 0.39 µg/mL (≈ 0.484 µM) | – |
| CC[C@H]1OC(=O)[C@H](C)[C@@H](O[C@H]2C[C@@](C)(OC)[C@@H](O)[C@H](C)O2)[C@H](C)[C@@H](O[C@@H]2O[C@H](C)C[C@H](N(C)C)[C@H]2O)[C@](C)(O)C[C@@H](C)[C@@H](N2CCCCC2)[C@H](C)[C@@H](O)[C@]1(C)O [Example 5] | 2 µg/mL (≈ 2.49 µM) | 4.5 mg/kg | 0.4 mg/kg | < 7.5 mg/kg | – | 41.9 mg/kg | 7.5 mg/kg | 0.78 µg/mL (≈ 0.971 µM) | < 0.6 mg/kg |
